#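 Following 48 hours of exposure in 96-well plates, responses at five concentrations were used to interpolate endpoints linearly. TGI marks complete inhibition of growth.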
# Assays:
# Experiment in all cases: growth of human tumour cells (NCI), 48 h
# PC-3 prostate = tested on: PC-3 prostate
# ACHN renal = tested on: ACHN renal
# NCI-H460 lung = tested on: NCI-H460 lung
# OVCAR-5 ovarian = tested on: OVCAR-5 ovarian
# A549 NSCLC = tested on: A549 NSCLC
# NCI-H226 lung = tested on: NCI-H226 lung
# TK-10 renal = tested on: TK-10 renal
# NCI-H23 lung = tested on: NCI-H23 lung
# SF-295 CNS = tested on: SF-295 CNS
# COLO 205 colon = tested on: COLO 205 colon
# NCI-H522 lung = tested on: NCI-H522 lung
# RXF 393 renal = tested on: RXF 393 renal
# HT29 colon = tested on: HT29 colon
# SF-268 CNS = tested on: SF-268 CNS
# HCT-116 colon = tested on: HCT-116 colon
# KM12 colon = tested on: KM12 colon
# UO-31 renal = tested on: UO-31 renal
# MALME-3M melanoma = tested on: MALME-3M melanoma
# UACC-257 melanoma = tested on: UACC-257 melanoma
# SF-539 CNS = tested on: SF-539 CNS
smiles,measurement,setting,value
CNC(=O)C1CCCN1C(=O)C(Cc1cnc[nH]1)NC(=O)C1CCC(=O)N1 (stereo not given),TGI,PC-3 prostate,> 100 µM
same,TGI,ACHN renal,> 100 µM
same,TGI,NCI-H460 lung,> 100 µM
same,TGI,OVCAR-5 ovarian,> 100 µM
same,TGI,A549 NSCLC,> 100 µM
same,TGI,NCI-H226 lung,> 100 µM
same,TGI,TK-10 renal,> 100 µM
same,TGI,NCI-H23 lung,> 100 µM
same,TGI,SF-295 CNS,> 100 µM
same,TGI,COLO 205 colon,> 100 µM
same,TGI,NCI-H522 lung,> 100 µM
same,TGI,RXF 393 renal,> 100 µM
same,TGI,HT29 colon,> 100 µM
same,TGI,SF-268 CNS,> 100 µM
same,TGI,HCT-116 colon,> 100 µM
same,TGI,KM12 colon,> 100 µM
same,TGI,UO-31 renal,> 100 µM
same,TGI,MALME-3M melanoma,> 100 µM
O=c1c2cc(-c3ccccc3)cnc2sn1-c1ccc(Oc2ccccc2)cc1,TGI,PC-3 prostate,52.1 µM
same,TGI,ACHN renal,> 100 µM
same,TGI,NCI-H460 lung,> 100 µM
same,TGI,OVCAR-5 ovarian,> 100 µM
same,TGI,UACC-257 melanoma,> 100 µM
same,TGI,A549 NSCLC,53.2 µM
same,TGI,NCI-H226 lung,> 100 µM
same,TGI,NCI-H23 lung,> 100 µM
same,TGI,SF-539 CNS,> 100 µM
same,TGI,SF-295 CNS,> 100 µM
same,TGI,COLO 205 colon,> 100 µM
same,TGI,NCI-H522 lung,> 100 µM
same,TGI,RXF 393 renal,44.6 µM
same,TGI,HT29 colon,47.6 µM
same,TGI,SF-268 CNS,> 100 µM
same,TGI,HCT-116 colon,> 100 µM
same,TGI,KM12 colon,> 100 µM
same,TGI,UO-31 renal,> 100 µM
same,TGI,MALME-3M melanoma,> 100 µM
CCC12CC(c3ccccc3)C(C(=O)N1)C(=O)N2 (stereo not given),TGI,PC-3 prostate,> 100 µM
same,TGI,ACHN renal,> 100 µM
same,TGI,NCI-H460 lung,> 100 µM
same,TGI,OVCAR-5 ovarian,> 100 µM
same,TGI,UACC-257 melanoma,> 100 µM
same,TGI,A549 NSCLC,> 100 µM
same,TGI,NCI-H226 lung,> 100 µM
same,TGI,NCI-H23 lung,> 100 µM
same,TGI,SF-539 CNS,> 100 µM
same,TGI,SF-295 CNS,> 100 µM
same,TGI,COLO 205 colon,> 100 µM
same,TGI,NCI-H522 lung,> 100 µM
same,TGI,RXF 393 renal,> 100 µM
same,TGI,HT29 colon,> 100 µM
same,TGI,SF-268 CNS,> 100 µM
same,TGI,HCT-116 colon,> 100 µM
same,TGI,KM12 colon,> 100 µM
same,TGI,UO-31 renal,> 100 µM
same,TGI,MALME-3M melanoma,> 100 µM
O=Nc1sc(=N\O)/c(=N/O)sc1NO,TGI,PC-3 prostate,> 100 µM
same,TGI,ACHN renal,> 100 µM
same,TGI,NCI-H460 lung,> 100 µM
same,TGI,OVCAR-5 ovarian,> 100 µM
same,TGI,UACC-257 melanoma,> 100 µM
same,TGI,A549 NSCLC,> 100 µM
same,TGI,NCI-H226 lung,> 100 µM
same,TGI,NCI-H23 lung,> 100 µM
same,TGI,SF-539 CNS,> 100 µM
same,TGI,SF-295 CNS,> 100 µM
same,TGI,COLO 205 colon,> 100 µM
same,TGI,NCI-H522 lung,> 100 µM
same,TGI,RXF 393 renal,> 100 µM
same,TGI,HT29 colon,> 100 µM
same,TGI,HCT-116 colon,> 100 µM
same,TGI,KM12 colon,> 100 µM
same,TGI,UO-31 renal,> 100 µM
same,TGI,MALME-3M melanoma,> 100 µM
CC1OC(OC2C(CO)OC(O[C@H]3CC[C@@]4(C)C(=CC[C@H]5[C@@H]6C[C@@H]7O[C@](O)(CC[C@H](CO)COC8OC(CO)C(O)C(O)C8O)[C@@H](C)[C@@H]7[C@@]6(C)CC[C@@H]54)C3)C(OC3OC(C)C(O)C(O)C3O)C2O)C(O)C(O)C1O (stereo not given in full),TGI,PC-3 prostate,> 100 µM
same,TGI,ACHN renal,> 100 µM
same,TGI,NCI-H460 lung,> 100 µM
same,TGI,OVCAR-5 ovarian,> 100 µM
same,TGI,UACC-257 melanoma,> 100 µM
same,TGI,A549 NSCLC,> 100 µM
same,TGI,TK-10 renal,> 100 µM
same,TGI,NCI-H23 lung,> 100 µM
same,TGI,SF-539 CNS,> 100 µM
same,TGI,SF-295 CNS,> 100 µM
same,TGI,COLO 205 colon,> 100 µM
same,TGI,NCI-H522 lung,> 100 µM
same,TGI,RXF 393 renal,> 100 µM
same,TGI,HT29 colon,> 100 µM
same,TGI,SF-268 CNS,> 100 µM
same,TGI,HCT-116 colon,> 100 µM
same,TGI,KM12 colon,> 100 µM
same,TGI,UO-31 renal,> 100 µM
same,TGI,MALME-3M melanoma,> 100 µM
COC(=O)CCc1ccc2c(c1)CC1(Cc3ccccc3C1)C2,TGI,PC-3 prostate,> 100 µM
same,TGI,ACHN renal,> 100 µM
same,TGI,OVCAR-5 ovarian,> 100 µM
same,TGI,UACC-257 melanoma,> 100 µM
same,TGI,A549 NSCLC,> 100 µM
same,TGI,NCI-H226 lung,> 100 µM
same,TGI,TK-10 renal,> 100 µM
same,TGI,NCI-H23 lung,> 100 µM
same,TGI,SF-539 CNS,> 100 µM
same,TGI,SF-295 CNS,> 100 µM
same,TGI,COLO 205 colon,> 100 µM
same,TGI,NCI-H522 lung,> 100 µM
same,TGI,RXF 393 renal,> 100 µM
same,TGI,HT29 colon,> 100 µM
same,TGI,HCT-116 colon,> 100 µM
same,TGI,KM12 colon,> 100 µM
same,TGI,UO-31 renal,> 100 µM
same,TGI,MALME-3M melanoma,> 100 µM
CCOC1(OCC)N=C(N)C2(C#N)C3(C(=O)N(C(C)C)N=C3C)C12C#N (stereo not given),TGI,PC-3 prostate,> 100 µM
same,TGI,ACHN renal,> 100 µM
same,TGI,NCI-H460 lung,> 100 µM
same,TGI,OVCAR-5 ovarian,> 100 µM
same,TGI,UACC-257 melanoma,> 100 µM
same,TGI,A549 NSCLC,> 100 µM
same,TGI,NCI-H226 lung,> 100 µM
same,TGI,NCI-H23 lung,> 100 µM
same,TGI,SF-539 CNS,> 100 µM
same,TGI,SF-295 CNS,> 100 µM
same,TGI,COLO 205 colon,> 100 µM
same,TGI,NCI-H522 lung,> 100 µM
same,TGI,RXF 393 renal,> 100 µM
same,TGI,HT29 colon,> 100 µM
same,TGI,SF-268 CNS,> 100 µM
same,TGI,HCT-116 colon,> 100 µM
same,TGI,KM12 colon,> 100 µM
same,TGI,UO-31 renal,> 100 µM
same,TGI,MALME-3M melanoma,> 100 µM
Cc1sc(Nc2ccccc2[N+](=O)[O-])c(C#N)c1C,TGI,PC-3 prostate,> 100 µM
same,TGI,ACHN renal,> 100 µM
same,TGI,NCI-H460 lung,> 100 µM
same,TGI,OVCAR-5 ovarian,> 100 µM
same,TGI,UACC-257 melanoma,> 100 µM
same,TGI,A549 NSCLC,> 100 µM
same,TGI,NCI-H226 lung,> 100 µM
same,TGI,NCI-H23 lung,44.8 µM
same,TGI,SF-539 CNS,68.3 µM
same,TGI,SF-295 CNS,> 100 µM
same,TGI,COLO 205 colon,> 100 µM
same,TGI,NCI-H522 lung,20.9 µM
same,TGI,RXF 393 renal,57.1 µM
same,TGI,SF-268 CNS,61.8 µM
same,TGI,HCT-116 colon,> 100 µM
same,TGI,KM12 colon,> 100 µM
same,TGI,UO-31 renal,> 100 µM
same,TGI,MALME-3M melanoma,> 100 µM
CCC1c2[nH]c3ccccc3c2C[C@H]2C(=O)NC(CCCCNC(=O)OC(C)(C)C)C(=O)N12 (stereo not given in full),TGI,PC-3 prostate,58.7 µM
same,TGI,ACHN renal,> 100 µM
same,TGI,NCI-H460 lung,> 100 µM
same,TGI,OVCAR-5 ovarian,> 100 µM
same,TGI,UACC-257 melanoma,66.8 µM
same,TGI,A549 NSCLC,> 100 µM
same,TGI,NCI-H226 lung,> 100 µM
same,TGI,TK-10 renal,> 100 µM
same,TGI,NCI-H23 lung,59.6 µM
same,TGI,SF-295 CNS,62.4 µM
same,TGI,COLO 205 colon,66.9 µM
same,TGI,NCI-H522 lung,50.9 µM
same,TGI,RXF 393 renal,> 100 µM
same,TGI,HT29 colon,99.3 µM
same,TGI,SF-268 CNS,> 100 µM
same,TGI,HCT-116 colon,94.4 µM
same,TGI,KM12 colon,44.7 µM
same,TGI,UO-31 renal,> 100 µM
same,TGI,MALME-3M melanoma,50.5 µM
CCC1c2[nH]c3ccccc3c2C[C@H]2C(=O)N3CCC[C@H]3C(=O)N12 (stereo not given in full),TGI,PC-3 prostate,> 100 µM
same,TGI,ACHN renal,> 100 µM
same,TGI,OVCAR-5 ovarian,> 100 µM
same,TGI,UACC-257 melanoma,> 100 µM
same,TGI,A549 NSCLC,> 100 µM
same,TGI,NCI-H226 lung,> 100 µM
same,TGI,TK-10 renal,> 100 µM
same,TGI,NCI-H23 lung,> 100 µM
same,TGI,SF-295 CNS,> 100 µM
same,TGI,COLO 205 colon,> 100 µM
same,TGI,NCI-H522 lung,> 100 µM
same,TGI,RXF 393 renal,> 100 µM
same,TGI,HT29 colon,> 100 µM
same,TGI,SF-268 CNS,> 100 µM
same,TGI,HCT-116 colon,> 100 µM
same,TGI,KM12 colon,> 100 µM
same,TGI,UO-31 renal,> 100 µM
same,TGI,MALME-3M melanoma,> 100 µM

# Source: PubChem BioAssay (NCI)
